# Experimental data reported in patent US9428505B2, “Hydantoin derivative” (Chugai Seiyaku Kabushiki Kaisha, priority 2012, dated 2016).
# Experiments:
# [1] = Metabolic stability using human liver microsomes; assay type: in vitro ADME; conditions: pH 7.4; human liver microsomes 0.5 mg/mL, compound 1 μM, NADPH 1 mM, 37° C.; read-out: Clearance
# Protocol: Examination of Metabolic Stability Using Human Liver Microsomes
# In 0.1 M phosphate buffer (pH7.4), human liver microsomes were incubated with a compound or a comparative example in the coexistence of NADPH at 37° C. for a specified amount of time. The concentration of the parent compound at each reaction time was measured using LC/MS/MS, and inherent clearance (μL/min/mg protein) was calculated from the slope of the reaction time versus residual rate.
# (§1) Compound concentration: 1 μM
# Reaction time: 0, 5, 15, and 30 minutes
# [2] = Metabolic stability using rat hepatocyte; assay type: in vitro ADME; conditions: for hepatocyte CLint at 1 μM: rat (SD, female) hepatocytes 1×10^6 cells/mL, compound 1 μM, 37° C., read-out: Clearance; for rat hepatocyte metabolic stability compared to Comparative Examples 1, 2, 3, 5, and 6: rat hepatocytes
# Protocol: Examination of Metabolic Stability Using Rat Hepatocyte
# Liver cells were prepared from the liver of rats (SD, female) by a collagenase perfusion method. A compound of the Examples or a Comparative Example was added, and this was incubated at 37° C. for a specified amount of time, followed by addition of a reaction-stopping solution. The concentration of the parent compound at each reaction time was measured using LC/MS/MS, and inherent clearance (μL/10^6 cells/min) was calculated from the slope of the reaction time versus residual rate.
# Cell concentration: 1×10^6 cells/mL
# as §1
# Medium: Williams' medium E
# Reaction-stopping solution: acetonitrile/2-propanol (4/6, v/v)
# [3] = tested on: TPTX rat model; test: Calcemic action in the TPTX rat model; assay type: in vivo; conditions: TPTX rats, oral 30 mg/kg; for change of serum Ca concentration from the Pre-value: up to 24 hours after administration
# Protocol: Calcemic Action in the TPTX Rat Model
# Four-week old female Crl:CD(SD) rats were obtained from Charles River Japan (Atsugi Breeding Center), and were acclimated to standard laboratory conditions of 20-26° C. and 35-75% humidity for one week. The rats were given tap water and were fed ad libitum with standard rodent chow (CE-2) (CLEA Japan, Inc.) containing 1.1% calcium, 1.0% phosphoric acid, and 250 IU/100 g of vitamin D3.
# TPTX was performed on five-week old rats. Some of the individuals were subjected to sham operation (Sham). Individuals whose serum Ca concentration was less than 8 mg/dL on four days after the operation were selected for use as TPTX rats. On five days after the operation, the rats were assigned to eight TPTX groups and one Sham group (n=5, each group) based on their body weight and serum Ca concentration measured on four days after the operation. The solvent alone was orally administered to the Sham group and the TPTX-Vehicle group at a volume of 10 mL/kg. Each test article was orally administered individually to each TPTX test article group by dissolving it in a solvent at a dose of 30 mg/10 mL/kg. The solvent composition was 10% dimethylsulfoxide (Wako Pure Chemical Industries, Ltd.), 10% Cremophor EL (Sigma-Aldrich Japan LLC), 20% hydroxypropyl-β-cyclodextrin (Nihon Shokuhin Kako Co., Ltd.), glycine (Wako Pure Chemical Industries, Ltd.); and the pH was adjusted to 10. Immediately before administration of each sample, Pre-blood collection was performed, and blood collection was carried out at 2, 6, 10, and 24 hours after administration to measure the serum Ca concentration. Each blood collection was carried out from the jugular vein under isoflurane inhalation anesthesia.
# Serum Ca measurement: Serum obtained by centrifugation from the collected blood was measured by using an automatic analyzer TBA-120FR (Toshiba Medical Systems Corporation).
# For statistical analysis of the animal studies, data are shown as mean±standard error (SE). Statistical analysis were performed by unpaired test of the SAS Preclinical Package (Ver. 5.00.010720, SAS Institute Japan, Tokyo, Japan).
# [4] = target: human PTH1R (Homo sapiens (Human), UniProt Q03431); test: In vitro cAMP signal activity via the human PTH1R (HKRK-B7 cells); assay type: cell-based; conditions: 100 nM human PTH(1-34) = 100%; for EC20: concentration giving 20% cAMP signaling activity; for EC50: concentration giving 50% cAMP signaling activity
# Protocol: Measurement of In Vitro cAMP Signal Activity of Compounds Via the Human PTH1R
# Human PTH(1-34) and calcitonin were purchased from Peptide Institute, Inc. (Osaka, Japan), dissolved in 10 mM acetic acid to 1 mM and stored in a −80° C. freezer.
# Cells were cultured in Dulbecco's modified Eagle's medium (DMEM) supplemented with 10% fetal bovine serum (Hyclone), 100 units/ml penicillin G and 100 μg/ml streptomycin sulfate (Invitrogen Corp) at 37° C. in a humidified atmosphere containing 5% CO2.
# cAMP signal transduction analysis utilized LLC-PK1 cells not expressing the PTH1R, and HKRK-B7 cells, that is, LLC-PK1 cells overexpressing the human PTH1R at 9.5×10^5 receptors/cell (Takasu et al., J. Bone. Miner. Res. 14:11-20, 1999).
# HKRK-B7 or LLC-PK1 cells were seeded into a 96-well plate at 1×10^5 cells/well and incubated overnight. On the following day, 50 μl of cAMP assay buffer (DMEM, 2 mM IBMX, 0.2 mg/ml bovine serum albumin, 35 mM Hepes-NaOH, pH 7.4) containing human PTH(1-34) or each compound was added and the plate was placed in a 37° C. incubator. The cells were incubated for 20 minutes. After removing the medium, the cells were washed with 100 μl of cAMP assay buffer once. The plate was placed on dry ice powder to freeze the cells and then removed from the dry ice. The cells were lysed with 40 μl of 50 mM HCl and frozen again on dry ice. The amount of intracellular cAMP produced was measured using a commercially available cAMP EIA kit (Biotrack cAMP EIA system, GE health care).
# Analyses were performed using a variable gradient S-shaped dose-response curve equation.
# Chain of human PTH1R (Q03431 27-593): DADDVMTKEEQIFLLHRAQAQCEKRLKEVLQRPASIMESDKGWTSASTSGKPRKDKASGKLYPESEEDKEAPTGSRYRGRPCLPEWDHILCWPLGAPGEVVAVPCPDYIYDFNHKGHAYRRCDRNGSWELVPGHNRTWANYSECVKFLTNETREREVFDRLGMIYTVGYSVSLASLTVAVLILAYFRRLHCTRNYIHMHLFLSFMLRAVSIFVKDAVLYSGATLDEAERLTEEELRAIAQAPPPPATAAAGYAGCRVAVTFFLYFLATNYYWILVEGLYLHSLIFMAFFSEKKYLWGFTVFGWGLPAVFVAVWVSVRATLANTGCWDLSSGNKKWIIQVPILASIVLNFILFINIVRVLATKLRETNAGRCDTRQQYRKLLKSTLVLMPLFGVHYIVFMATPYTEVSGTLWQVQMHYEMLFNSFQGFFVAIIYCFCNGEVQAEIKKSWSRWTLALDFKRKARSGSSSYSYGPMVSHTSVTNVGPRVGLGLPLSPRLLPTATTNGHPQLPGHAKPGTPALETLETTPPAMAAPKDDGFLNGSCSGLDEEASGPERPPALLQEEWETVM
SMILES,microsomal CLint at 1 μM [1] [µL/min/mg],hepatocyte CLint at 1 μM [2] [µL/min/1e6 cells],achievement of therapeutic target range of serum Ca concentration of 7.6 to 8.8 mg/dL [3],change of serum Ca concentration from the Pre-value [3],EC20 [4] [µM],EC50 [4] [µM],"rat hepatocyte metabolic stability compared to Comparative Examples 1, 2, 3, 5, and 6 [2]"
"Cc1cc(N2C(=O)CNC2=O)cc(C)c1CCS(=O)(=O)N1CCC2(CC1)N=C(c1cccc(OC(F)(F)F)c1)NC2=O [Comparative Example 2, reference compound]",61,5.9,could not be achieved,smaller positive changes from the Pre-value,3.1,13,–
"Cc1cc(N2C(=O)CNC2=O)cc(C)c1CCS(=O)(=O)N1CCC2(CC1)N=C(c1ccc(F)c(C(F)(F)F)c1)NC2=O [Comparative Example 3, reference compound]",74,22,–,–,2.0,9,–
"CCC1CCC(C2=NC3(CCN(S(=O)(=O)CCc4ccc(N5CC(=O)NC5=O)cc4C)CC3)C(=O)N2)CC1 (centres unmarked) [Comparative Example 4, reference compound]",74,–,–,–,>505,–,–
"CC[C@H]1CC[C@H](C2=NC3(CCN(S(=O)(=O)CCc4ccc(N5CC(=O)NC5=O)cc4C)CC3)C(=O)N2)CC1 [Comparative Example 4, reference compound]",–,–,–,–,–,> 1000,–
"CCC1CCC(C2=NC3(CCN(S(=O)(=O)CCc4ccc(N5C(=O)NC(=O)C5C)cc4C)CC3)C(=O)N2)CC1 (centres unmarked) [Comparative Example 5, reference compound]",112,22,–,–,3.1,–,–
"CC[C@H]1CC[C@H](C2=NC3(CCN(S(=O)(=O)CCc4ccc(N5C(=O)NC(=O)C5C)cc4C)CC3)C(=O)N2)CC1 (some centres unmarked) [Comparative Example 5, reference compound]",–,–,–,–,–,25,–
"CCC1CCC(C2=NC3(CCN(S(=O)(=O)CCc4ccc(N5C(=O)NC(=O)C5(C)C)cc4C)CC3)C(=O)N2)CC1 (centres unmarked) [Comparative Example 6, reference compound]",154,22,–,–,3.6,–,–
"CC[C@H]1CC[C@H](C2=NC3(CCN(S(=O)(=O)CCc4ccc(N5C(=O)NC(=O)C5(C)C)cc4C)CC3)C(=O)N2)CC1 [Comparative Example 6, reference compound]",–,–,–,–,–,32,–
"Cc1cc(N2C(=O)NC(=O)C2(C)C)cc(C)c1CCS(=O)(=O)N1CCC2(CC1)N=C(c1ccc(F)c(OC(F)(F)F)c1)NC2=O [Compound 1, 1-(4-(2-((2-(4-fluoro-3-(trifluoromethoxy)phenyl)-4-oxo-1,3,8-triazaspiro[4.5]deca-1-en-8-yl)sulfonyl)ethyl)-3,5-dimethylphenyl)-5,5-dimethylimidazolidine-2,4-dione]",21,7.6,could not be achieved,smaller positive changes from the Pre-value,1.3,5.8,–
"Cc1cc(N2C(=O)NC(=O)C2(C)C)cc(C)c1CCS(=O)(=O)N1CCC2(CC1)N=C(c1cccc(Br)c1)NC2=O [Compound 2, 1-(4-(2-((2-(3-bromophenyl)-4-oxo-1,3,8-triazaspiro[4.5]deca-1-en-8-yl)sulfonyl)ethyl)-3,5-dimethylphenyl)-5,5-dimethylimidazolidine-2,4-dione]",38,3,–,–,2.4,14,increased
"Cc1cc(N2C(=O)NC(=O)C2(C)C)cc(C)c1CCS(=O)(=O)N1CCC2(CC1)N=C(c1ccc(F)c(C(F)(F)F)c1)NC2=O [Compound 3, 1-(4-(2-((2-(4-fluoro-3-(trifluoromethyl)phenyl)-4-oxo-1,3,8-triazaspiro[4.5]deca-1-en-8-yl)sulfonyl)ethyl)-3,5-dimethylphenyl)-5,5-dimethylimidazolidine-2,4-dione]",29,17,–,–,–,–,–
"Cc1cc(N2C(=O)NC(=O)C2(C)C)cc(C)c1CCS(=O)(=O)N1CCC2(CC1)N=C(c1ccc(OC(F)(F)F)c(F)c1)NC2=O [Compound 4, 1-(4-(2-((2-(3-fluoro-4-(trifluoromethoxy)phenyl)-4-oxo-1,3,8-triazaspiro[4.5]deca-1-en-8-yl)sulfonyl)ethyl)-3,5-dimethylphenyl)-5,5-dimethylimidazolidine-2,4-dione]",27,2.2,–,–,1.6,7.4,increased
"Cc1cc(N2C(=O)NC(=O)C2(C)C)cc(C)c1CCS(=O)(=O)N1CCC2(CC1)N=C(c1ccc3c(c1)OC(F)(F)O3)NC2=O [Compound 5, 1-(4-(2-((2-(2,2-difluorobenzo[d][1,3]dioxol-5-yl)-4-oxo-1,3,8-triazaspiro[4.5]deca-1-en-8-yl)sulfonyl)ethyl)-3,5-dimethylphenyl)-5,5-dimethylimidazolidine-2,4-dione]",37,1,–,–,1.7,8.1,increased
"Cc1cc(N2C(=O)NC(=O)C23CCN(C)CC3)cc(C)c1CCS(=O)(=O)N1CCC2(CC1)N=C(c1ccc(OC(F)(F)F)cc1)NC2=O [Compound 9, 1-(3,5-dimethyl-4-(2-((4-oxo-2-(4-(trifluoromethoxy)phenyl)-1,3,8-triazaspiro[4.5]deca-1-en-8-yl)sulfonyl)ethyl)phenyl)-8-methyl-1,3,8-triazaspiro[4.5]decane-2,4-dione]",28,1.8,–,–,2.6,12,increased
"Cc1cc(N2C(=O)NC(=O)C23CCCC3)cc(C)c1CCS(=O)(=O)N1CCC2(CC1)N=C(c1cccc(C(F)(F)F)c1)NC2=O [Compound 12, 1-(3,5-dimethyl-4-(2-((4-oxo-2-(3-(trifluoromethyl)phenyl)-1,3,8-triazaspiro[4.5]deca-1-en-8-yl)sulfonyl)ethyl)phenyl)-1,3-diazaspiro[4.4]nonane-2,4-dione]",63,–,–,–,–,–,–
